Data published in patent publication EP0726263A2, “Herbicidal (1,3,4)oxadiazoles and thiadiazoles” (American Cyanamid Company, priority 1995, dated 1996).

Columns and labels:
Assay type in all cases: in vivo
Gossypium hirsutum [1] = assay: Herbicidal activity, preemergence test; conditions: pre; sprayed onto soil, 800 g of active material per hectare; evaluated 3 weeks after treatment
How it was run: (§1)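 Scored visually on a 0-9 scale against untreated sown soil 3 weeks after application. Seeds freshly sown in prepared loam received a soil spray of 800 g/ha active material, applied as a water-diluted acetone solution with 0.4% TRITON X-155 at 900 L/ha.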

Stellaria media [2] = assay: Herbicidal activity, preemergence test; conditions: pre; sprayed onto soil, 800 g of active material per hectare; evaluated 3 weeks after treatment
How it was run: as §1

Zea mays [3] = assay: Herbicidal activity, preemergence test; conditions: pre; sprayed onto soil, 800 g of active material per hectare; evaluated 3 weeks after treatment
How it was run: as §1

Matricaria inodora [4] = assay: Herbicidal activity, preemergence test; conditions: pre; sprayed onto soil, 800 g of active material per hectare; evaluated 3 weeks after treatment
How it was run: as §1

Alopecurus myosuroides [5] = assay: Herbicidal activity, preemergence test; conditions: pre; sprayed onto soil, 800 g of active material per hectare; evaluated 3 weeks after treatment
How it was run: as §1

Setaria viridis [6] = assay: Herbicidal activity, preemergence test; conditions: pre; sprayed onto soil, 800 g of active material per hectare; evaluated 3 weeks after treatment
How it was run: as §1

Triticum aestivum [7] = assay: Herbicidal activity, preemergence test; conditions: pre; sprayed onto soil, 800 g of active material per hectare; evaluated 3 weeks after treatment
How it was run: as §1

Veronica persica [8] = assay: Herbicidal activity, preemergence test; conditions: pre; sprayed onto soil, 800 g of active material per hectare; evaluated 3 weeks after treatment
How it was run: as §1

Papaver rhoeas [9] = assay: Herbicidal activity, preemergence test; conditions: pre; sprayed onto soil, 800 g of active material per hectare; evaluated 3 weeks after treatment
How it was run: as §1

Abutilon theophrasti [10] = assay: Herbicidal activity, preemergence test; conditions: pre; sprayed onto soil, 800 g of active material per hectare; evaluated 3 weeks after treatment
How it was run: as §1

Galium aparine [11] = assay: Herbicidal activity, preemergence test; conditions: pre; sprayed onto soil, 800 g of active material per hectare; evaluated 3 weeks after treatment
How it was run: as §1

Lamium purpureum [12] = assay: Herbicidal activity, preemergence test; conditions: pre; sprayed onto soil, 800 g of active material per hectare; evaluated 3 weeks after treatment
How it was run: as §1

Amaranthus retroflexus [13] = assay: Herbicidal activity, preemergence test; conditions: pre; sprayed onto soil, 800 g of active material per hectare; evaluated 3 weeks after treatment
How it was run: as §1

Ambrosia artemisifolia [14] = assay: Herbicidal activity, preemergence test; conditions: pre; sprayed onto soil, 800 g of active material per hectare; evaluated 3 weeks after treatment
How it was run: as §1

Glycine max [15] = assay: Herbicidal activity, preemergence test; conditions: pre; sprayed onto soil, 800 g of active material per hectare; evaluated 3 weeks after treatment
How it was run: as §1

Ipomoea hederacea [16] = assay: Herbicidal activity, preemergence test; conditions: pre; sprayed onto soil, 800 g of active material per hectare; evaluated 3 weeks after treatment
How it was run: as §1

Chenopodium album [17] = assay: Herbicidal activity, preemergence test; conditions: pre; sprayed onto soil, 800 g of active material per hectare; evaluated 3 weeks after treatment
How it was run: as §1

Hordeum vulgare [18] = assay: Herbicidal activity, preemergence test; conditions: pre; sprayed onto soil, 800 g of active material per hectare; evaluated 3 weeks after treatment
How it was run: as §1

Gossypium hirsutum [19] = assay: Herbicidal activity, postemergence test; conditions: post; sprayed onto seedling plants, 800 g of active material per hectare; evaluated 2 weeks after treatment
How it was run: (§2)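 First, test compound in acetone containing 0.4% Triton X-155 is diluted with water. Next, it is sprayed at 800 g/ha (900 L/ha) onto freshly seeded loam (pre) or onto seedlings (post). Finally, plants are scored 0-9 visually after 3 or 2 weeks, respectively.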

Stellaria media [20] = assay: Herbicidal activity, postemergence test; conditions: post; sprayed onto seedling plants, 800 g of active material per hectare; evaluated 2 weeks after treatment
How it was run: as §2

Zea mays [21] = assay: Herbicidal activity, postemergence test; conditions: post; sprayed onto seedling plants, 800 g of active material per hectare; evaluated 2 weeks after treatment
How it was run: as §2

Matricaria inodora [22] = assay: Herbicidal activity, postemergence test; conditions: post; sprayed onto seedling plants, 800 g of active material per hectare; evaluated 2 weeks after treatment
How it was run: as §2

Alopecurus myosuroides [23] = assay: Herbicidal activity, postemergence test; conditions: post; sprayed onto seedling plants, 800 g of active material per hectare; evaluated 2 weeks after treatment
How it was run: as §2

Setaria viridis [24] = assay: Herbicidal activity, postemergence test; conditions: post; sprayed onto seedling plants, 800 g of active material per hectare; evaluated 2 weeks after treatment
How it was run: as §2

Triticum aestivum [25] = assay: Herbicidal activity, postemergence test; conditions: post; sprayed onto seedling plants, 800 g of active material per hectare; evaluated 2 weeks after treatment
How it was run: as §2

Veronica persica [26] = assay: Herbicidal activity, postemergence test; conditions: post; sprayed onto seedling plants, 800 g of active material per hectare; evaluated 2 weeks after treatment
How it was run: as §2

Papaver rhoeas [27] = assay: Herbicidal activity, postemergence test; conditions: post; sprayed onto seedling plants, 800 g of active material per hectare; evaluated 2 weeks after treatment
How it was run: as §2

Abutilon theophrasti [28] = assay: Herbicidal activity, postemergence test; conditions: post; sprayed onto seedling plants, 800 g of active material per hectare; evaluated 2 weeks after treatment
How it was run: as §2

Galium aparine [29] = assay: Herbicidal activity, postemergence test; conditions: post; sprayed onto seedling plants, 800 g of active material per hectare; evaluated 2 weeks after treatment
How it was run: as §2

Lamium purpureum [30] = assay: Herbicidal activity, postemergence test; conditions: post; sprayed onto seedling plants, 800 g of active material per hectare; evaluated 2 weeks after treatment
How it was run: as §2

Amaranthus retroflexus [31] = assay: Herbicidal activity, postemergence test; conditions: post; sprayed onto seedling plants, 800 g of active material per hectare; evaluated 2 weeks after treatment
How it was run: as §2

Ambrosia artemisifolia [32] = assay: Herbicidal activity, postemergence test; conditions: post; sprayed onto seedling plants, 800 g of active material per hectare; evaluated 2 weeks after treatment
How it was run: as §2

Glycine max [33] = assay: Herbicidal activity, postemergence test; conditions: post; sprayed onto seedling plants, 800 g of active material per hectare; evaluated 2 weeks after treatment
How it was run: as §2

Ipomoea hederacea [34] = assay: Herbicidal activity, postemergence test; conditions: post; sprayed onto seedling plants, 800 g of active material per hectare; evaluated 2 weeks after treatment
How it was run: as §2

Chenopodium album [35] = assay: Herbicidal activity, postemergence test; conditions: post; sprayed onto seedling plants, 800 g of active material per hectare; evaluated 2 weeks after treatment
How it was run: as §2

Hordeum vulgare [36] = assay: Herbicidal activity, postemergence test; conditions: post; sprayed onto seedling plants, 800 g of active material per hectare; evaluated 2 weeks after treatment
How it was run: as §2

Row | Compound | GOSHI control rating (0-9) (Gossypium hirsutum [1]) | STEME control rating (0-9) (Stellaria media [2]) | ZEAMX control rating (0-9) (Zea mays [3]) | MATIN control rating (0-9) (Matricaria inodora [4]) | ALOMY control rating (0-9) (Alopecurus myosuroides [5]) | SETVI control rating (0-9) (Setaria viridis [6]) | TRZAW control rating (0-9) (Triticum aestivum [7]) | VERPE control rating (0-9) (Veronica persica [8]) | PAPRH control rating (0-9) (Papaver rhoeas [9]) | ABUTH control rating (0-9) (Abutilon theophrasti [10]) | GALAP control rating (0-9) (Galium aparine [11]) | LAMPU control rating (0-9) (Lamium purpureum [12]) | AMARE control rating (0-9) (Amaranthus retroflexus [13]) | AMBEL control rating (0-9) (Ambrosia artemisifolia [14]) | GLXMA control rating (0-9) (Glycine max [15]) | IPOHE control rating (0-9) (Ipomoea hederacea [16]) | CHEAL control rating (0-9) (Chenopodium album [17]) | HORVW control rating (0-9) (Hordeum vulgare [18]) | GOSHI control rating (0-9) (Gossypium hirsutum [19]) | STEME control rating (0-9) (Stellaria media [20]) | other results
1 | C[C@H](NC(=O)c1nnc(-c2ccccc2F)o1)c1ccccc1 [Example 10] | 0 (no effect) | 9 (complete kill) | 0 (no effect) | 8 (approaching complete kill) | 1 (trace effect) | 3 (moderate effect) | 0 (no effect) | 9 (complete kill) | 9 (complete kill) | 0 (no effect) | 0 (no effect) | 8 (approaching complete kill) | 8 (approaching complete kill) | 3 (moderate effect) | 2 (slight effect) | 0 (no effect) | 8 (approaching complete kill) | 0 (no effect) | 8 (approaching complete kill) | 9 (complete kill) | ZEAMX control rating (0-9) (Zea mays [21]): 3 (moderate effect); MATIN control rating (0-9) (Matricaria inodora [22]): 0 (no effect); ALOMY control rating (0-9) (Alopecurus myosuroides [23]): 0 (no effect); SETVI control rating (0-9) (Setaria viridis [24]): 9 (complete kill); TRZAW control rating (0-9) (Triticum aestivum [25]): 2 (slight effect); VERPE control rating (0-9) (Veronica persica [26]): 9 (complete kill); PAPRH control rating (0-9) (Papaver rhoeas [27]): 8 (approaching complete kill); ABUTH control rating (0-9) (Abutilon theophrasti [28]): 9 (complete kill); GALAP control rating (0-9) (Galium aparine [29]): 6 (herbicidal effect); LAMPU control rating (0-9) (Lamium purpureum [30]): 8 (approaching complete kill); AMARE control rating (0-9) (Amaranthus retroflexus [31]): 9 (complete kill); AMBEL control rating (0-9) (Ambrosia artemisifolia [32]): 7 (good herbicidal effect); GLXMA control rating (0-9) (Glycine max [33]): 4 (injury); IPOHE control rating (0-9) (Ipomoea hederacea [34]): 8 (approaching complete kill); CHEAL control rating (0-9) (Chenopodium album [35]): 7 (good herbicidal effect); HORVW control rating (0-9) (Hordeum vulgare [36]): 4 (injury)
2 | C[C@H](NC(=O)c1nnc(-c2c(F)cccc2F)o1)c1ccccc1 [Example 24] | 0 (no effect) | 8 (approaching complete kill) | 0 (no effect) | 9 (complete kill) | 2 (slight effect) | 8 (approaching complete kill) | 0 (no effect) | 9 (complete kill) | 9 (complete kill) | 7 (good herbicidal effect) | 0 (no effect) | 7 (good herbicidal effect) | 9 (complete kill) | 3 (moderate effect) | 0 (no effect) | 2 (slight effect) | 8 (approaching complete kill) | 0 (no effect) | 8 (approaching complete kill) | 8 (approaching complete kill) | ZEAMX control rating (0-9) (Zea mays [21]): 2 (slight effect); MATIN control rating (0-9) (Matricaria inodora [22]): 4 (injury); ALOMY control rating (0-9) (Alopecurus myosuroides [23]): 2 (slight effect); SETVI control rating (0-9) (Setaria viridis [24]): 6 (herbicidal effect); TRZAW control rating (0-9) (Triticum aestivum [25]): 3 (moderate effect); VERPE control rating (0-9) (Veronica persica [26]): 9 (complete kill); PAPRH control rating (0-9) (Papaver rhoeas [27]): 6 (herbicidal effect); ABUTH control rating (0-9) (Abutilon theophrasti [28]): 9 (complete kill); GALAP control rating (0-9) (Galium aparine [29]): 5 (definite injury); LAMPU control rating (0-9) (Lamium purpureum [30]): 8 (approaching complete kill); AMARE control rating (0-9) (Amaranthus retroflexus [31]): 9 (complete kill); AMBEL control rating (0-9) (Ambrosia artemisifolia [32]): 8 (approaching complete kill); GLXMA control rating (0-9) (Glycine max [33]): 4 (injury); IPOHE control rating (0-9) (Ipomoea hederacea [34]): 5 (definite injury); CHEAL control rating (0-9) (Chenopodium album [35]): 9 (complete kill); HORVW control rating (0-9) (Hordeum vulgare [36]): 2 (slight effect)
3 | C[C@H](NC(=O)c1nnc(-c2ccc(C(F)(F)F)cc2)o1)c1ccccc1 [Example 23] | 0 (no effect) | 8 (approaching complete kill) | 1 (trace effect) | 8 (approaching complete kill) | 4 (injury) | 8 (approaching complete kill) | 0 (no effect) | 9 (complete kill) | 9 (complete kill) | 5 (definite injury) | 0 (no effect) | 7 (good herbicidal effect) | 9 (complete kill) | 0 (no effect) | 0 (no effect) | 0 (no effect) | 8 (approaching complete kill) | 0 (no effect) | 9 (complete kill) | 9 (complete kill) | ZEAMX control rating (0-9) (Zea mays [21]): 3 (moderate effect); MATIN control rating (0-9) (Matricaria inodora [22]): 8 (approaching complete kill); ALOMY control rating (0-9) (Alopecurus myosuroides [23]): 3 (moderate effect); SETVI control rating (0-9) (Setaria viridis [24]): 9 (complete kill); TRZAW control rating (0-9) (Triticum aestivum [25]): 3 (moderate effect); VERPE control rating (0-9) (Veronica persica [26]): 9 (complete kill); PAPRH control rating (0-9) (Papaver rhoeas [27]): 8 (approaching complete kill); ABUTH control rating (0-9) (Abutilon theophrasti [28]): 9 (complete kill); GALAP control rating (0-9) (Galium aparine [29]): 7 (good herbicidal effect); LAMPU control rating (0-9) (Lamium purpureum [30]): 9 (complete kill); AMARE control rating (0-9) (Amaranthus retroflexus [31]): 9 (complete kill); AMBEL control rating (0-9) (Ambrosia artemisifolia [32]): 8 (approaching complete kill); GLXMA control rating (0-9) (Glycine max [33]): 5 (definite injury); IPOHE control rating (0-9) (Ipomoea hederacea [34]): 8 (approaching complete kill); CHEAL control rating (0-9) (Chenopodium album [35]): 9 (complete kill); HORVW control rating (0-9) (Hordeum vulgare [36]): 4 (injury)
